Values of other authors, collected in US20050201949A1, “Pharmaceutical formulations” (priority 2003, published 2005).
Where a name gives a salt, the structure may show the parent alone.

Conditions: solid tablets with a lactose excipient; Maillard reaction postulated

## CNCCC(Oc1ccc(C(F)(F)F)cc1)c1ccccc1 (stereo not shown) [fluoxetine hydrochloride]
  Degradation in the presence of lactose excipient: undergoes degradation
